Measured values as given in US4755522A, “Derivatives of N-[3-(2,4,6-trimethoxybenzoyl)propyl]piperidine, and their use in therapeutics” (priority 1986, dated 1988).
Values joined by “and” are separate entries in the source; they are usually repeats but may differ in a detail not shown here. Equal entries are not always repeated. “Also recorded” adds a separate entry of the source. Where two headings read alike, the source gives them in different places.

How the values were obtained:
mice = assay type: in vivo; details: 260 mg/kg I.P. (footnote *)
cardio-vascular system = assay: Action on the cardio-vascular system in the anaesthetized dog; assay type: in vivo
Protocol: (b) Action on the cardio-vascular system (in the dog).
(§1) 3 dogs (average weight, 12 kg) anaesthetized with nembutal, receive the compound by intra-duodenal route at successive doses of 0.1-0.5-2.5-10 and 20 mg/kg.
The arterial pressure, the cardiac rate, the femoral arterial flow, the vertebral arterial flow, the rectal and skin temperatures are all measured. The coloration of the skin is observed.
(§2) 3 dogs (average weight, 14 kg) anaesthetized with nembutal, received the CRL 41,390 by intra-duodenal route, at successive doses of 0.1-0.5-1-2.5-5-10-20 mg/kg, then a supplementary dose of 10 mg/kg I.V.
The arterial pressure, the cardiac frequency, the femoral arterial flow, the vertebral arterial flow, the rectal and cutaneous temperatures, were measured. The coloration of the skin was observed.

isoprenaline = assay: Effects of isoprenaline on arterial pressure and cardiac rate after the compound (dog); assay type: in vivo
Protocol: as §2

noradrenaline = assay: Hypertension with noradrenaline after the compound (dog); assay type: in vivo
Protocol: as §1, §2
Hypertension to noradrenaline is not modified: at 2 mcg/kg of noradrenaline, the systolic arterial pressure passes, after administration of the product, from 160 to 290 mmHg/161 to 289 mmHg in the control.

ectopic heart-beats = assay: Ectopic heart-beats in dogs with coronary artery ligature a few weeks earlier; assay type: in vivo, dog; details: I.D.; for minimal effective dose: Canis lupus familiaris, intraduodenal, read-out: dose re-establishing a normal rhythm
Protocol: as §1
Two of these three dogs having undergone a ligature of a coronary artery a few weeks earlier still presented numerous ectopic heart-beats.

[1] = system: arrhythmias caused by injection of adrenaline; assay: Arrhythmias caused by adrenaline + petroleum ether (dog); assay type: in vivo; details: 39.1 mg/kg I.D.
Protocol: In the third dog, arrhythmias were caused by injection of adrenaline (10 mcg/kg), preceded by an intra-trachealinjection of petroleum ether (0.1 ml/kg before and after administration of the 39.1 mg/kg (in cumulative doses) of the compound. On the E.C.G., the number of beats of sinusoidal origin and the number of ectopic beats per minute are counted which follow the injection of adrenaline. |Dose of compound | Number of beats in 1 minute |mg/kg I.D. ectopic sinusoidal

[2] = system: left descending coronary artery ligature; assay: Dog with left descending coronary artery ligatured 24 hours earlier, I.V.; assay type: in vivo
Protocol: In a dog of which the left descending coronary artery had been ligatured 24 hours earlier, the compound was administered by intravenous route at increasing doses: 0.5-1-2.5-5-10 mg/kg. every 30 minutes.

[3] = system: arrhythmias caused by adrenaline; assay: Arrhythmias caused by adrenaline I.V., 4 days after coronary ligature (dog); assay type: in vivo
Protocol: 4 days after the ligature of the coronary, this same dog received injections I.V. of 5 mcg/kg of adrenaline which caused arrhythmias. The number of ectopic beats caused by adrenaline reduces starting from the dose of 5 mg/kg I.V. while the percentage of ectopic beats referred to the total cardiac frequency is 79% in comparison with 100% in the control and 46% 10 minutes after the dose of 10 mg/kg (64% after 40 minutes, 88% after 90 minutes).

awakened dog = assay: Toxic effects in the awakened dog, I.V. cumulative; assay type: in vivo
[4] = system: ventricular fibrillation (V.F.) by inhalation of chloroform; assay: Lawson's test in mice (ventricular fibrillation by inhalation of chloroform); assay type: in vivo
Text: (c) Anti-arrhythmic action in the mouse. Research on the anti-arrhythmic activity by intraperitoneal route on Lawson's test in mice (ventricular fibrillation (V.F.) by inhalation of chloroform, all or nothing response) has given the following results (10 mice per dose).

[5] = system: arrhythmias with K-strophanthin; assay: Arrhythmias with K-strophanthin in the guinea-pig; assay type: in vivo; details: 10 mg/kg I.V.
Protocol: (§3) The compound was administered by intravenous route at a dose of 10 mg/kg to a series of 10 albino guinea-pigs of 380 to 495 g, anaesthetized with urethane.
(§4) 5 minutes later, they receive an I.V. perfusion of the product causing arrhythmia at a dosage of 0.09 mg/min. in a volume of 0.6 ml/min.
(§5) The compound is compared with quinidine at a dose of 5 mg/kg I>V> and with a series of controls.
(§6) Lots are drawn for the treatments.
A--Action on arrhythmias with K-strophanthin.

[6] = system: arrhythmias with aconitine; assay: Arrhythmias with aconitine in the guinea-pig; assay type: in vivo
Protocol: as §3, §4, §5, §6
B--Action on arrhythmias with aconitine.

cardiac arrhythmias = assay: Treatment of cardiac arrhythmias in man; assay type: in vivo; details: capsules or tablets 200 mg, 3 to 4 per day
Protocol: The compound of example 1 in the form of capsules or tablets with doses of 200 mg, 3 to 4 per day, has given good results in the treatment of cardiac arrhythmias in man.

COc1cc(OC)c(C(=O)CCCN2CCCC(CO)C2)c(OC)c1.Cl (stereo not shown) [CRL 41,391, N-[3-(2,4,6-trimethoxybenzoyl)propyl]-3-piperidinemethanol hydrochloride]
convulsions (mice): convulsions | effect on heart rate (cardio-vascular system; 20 mg/kg I.D.): slightly reduces the heart rate | minimal effective dose (cardio-vascular system; Canis lupus familiaris, intraduodenal, I.D., read-out: dose from which femoral flow increases): 5 mg/kg | effect on rectal and cutaneous temperatures (cardio-vascular system; I.D.): does not modify the rectal and cutaneous temperatures | effect on vertebral flow (cardio-vascular system; I.D.): reduces the vertebral flow | effect on femoral flow (cardio-vascular system; I.D., starting at 5 mg/kg): increases the femoral flow | effect on the arterial pressure (cardio-vascular system; intra-duodenal, successive doses to 20 mg/kg, nembutal): no effect on the arterial pressure | diastolic arterial pressure after the product, before isoprenaline (isoprenaline; 39.1 mg/kg I.D. cumulative, control 120): 107 mmHg | cardiac rate after the product, before isoprenaline (isoprenaline; 39.1 mg/kg I.D. cumulative, control 157): 160 beats/minute | diastolic arterial pressure after the product, with isoprenaline (isoprenaline; 10 mcg/kg isoprenaline I.V., 39.1 mg/kg I.D. cumulative, control 37): 36 mmHg | change of diastolic arterial pressure with isoprenaline (isoprenaline; 10 mcg/kg isoprenaline I.V., 39.1 mg/kg I.D. cumulative, control 83): 71 mmHg | cardiac rate after the product, with isoprenaline (isoprenaline; 10 mcg/kg isoprenaline I.V., 39.1 mg/kg I.D. cumulative, control 273): 255 beats/minute | effects of isoprenaline on arterial pressure and cardiac rate (isoprenaline; after accumulated dose 39.1 mg/kg I.D.): very slightly reduced | systolic pressure after the product, before noradrenaline (noradrenaline; 39.1 mg/kg I.D. cumulative, control 153): 149 mmHg | systolic pressure after the product, with noradrenaline (noradrenaline; 2 mcg/kg noradrenaline I.V., 39.1 mg/kg I.D. cumulative, control 271): 256 mmHg | hypertension with noradrenaline (noradrenaline; after 39.1 mg/kg I.D. cumulative): slightly reduced | minimal effective dose (ectopic heart-beats; one dog): 2.5 mg/kg | minimal effective dose (ectopic heart-beats; the other dog): 10 mg/kg | normal rhythm (ectopic heart-beats; two dogs): re-established a normal rhythm in these two dogs | number of ectopic beats caused by adrenaline+petroleum ether [1]: strongly reduces the number of ectopic beats | Number of beats in 1 minute, sinusoidal ([1]; 35 at dose 0): 173 | Number of beats in 1 minute, ectopic ([1]; 163 at dose 0): 26 | sinusoidal beats ([2]; 2.5 mg/kg I.V.): ≥ 5% | sinusoidal beats ([2]; 5 mg/kg I.V., 5 minutes after injection): 19% | vomitting ([2]; 10 mg/kg I.V.): brief vomitting | sinusoidal beats ([2]; 20 minutes after the injection): 41% | sinusoidal beats ([2]; 40 minutes): 25% | sinusoidal beats ([2]; 60 minutes): 15% | minimal effective dose ([2]; Canis lupus familiaris, iv, I.V., zero sinusoidal beats in the control, read-out: dose from which sinusoidal beats increase): 2.5 mg/kg | change of cardiac frequency ([2]; after 10 mg/kg I.V.): -25% | cardiac frequency ([2]; after 10 mg/kg I.V., from 231): 174 beats/minute | ectopic beats referred to the total cardiac frequency ([3]; 5 mg/kg I.V., control 100%): 79% | ectopic beats referred to the total cardiac frequency ([3]; 10 mg/kg I.V., after 40 minutes): 64% | ectopic beats referred to the total cardiac frequency ([3]; 10 mg/kg I.V., after 90 minutes): 88% | ectopic beats referred to the total cardiac frequency ([3]; 10 minutes after 10 mg/kg I.V.): 46% | minimal effective dose ([3]; Canis lupus familiaris, iv, I.V., adrenaline 5 mcg/kg I.V., read-out: dose from which ectopic beats caused by adrenaline are reduced): 5 mg/kg | nictitating membrane (awakened dog; 70 mg/kg I.V. total): released for 10 minutes | vomiting, cumulative dose (awakened dog; I.V., 5 minutes after the injection, hydrochloride): 40 mg/kg and 70 mg/kg | somnolence (awakened dog; I.V., total 70 mg/kg): a certain somnolence was observed | % of mice not presenting V.F. ([4]; 5 mg/kg I.P.): 22% | % of mice not presenting V.F. ([4]; 10 mg/kg I.P.): 50% | % of mice not presenting V.F. ([4]; 20 mg/kg I.P.): 70% | appearance of incidents in the E.C.G. due to K-strophanthin [5]: significantly delays | cardiac frequency [5]: does not significantly modify the cardiac frequency | increase of cardiac frequency (average) ([6]; 10 mg/kg I.V.): 12 beats/minute | action on aconitine compared with quinidine ([6]; 10 mg/kg I.V. vs quinidine 5 mg/kg): greater than that observed after pre-treatment with 5 mg/kg of quinidine | cardiac frequency (conclusion, K-strophanthin and aconitine) ([6]; 10 mg/kg I.V., anaesthetized guinea-pig): without modifying or with very moderate increase in the cardiac frequency | appearance of incidents in the E.C.G. due to aconitine ([6]; 10 mg/kg I.V., hydrochloride): significantly retards; also recorded: significantly delays | treatment of cardiac arrhythmias in man (cardiac arrhythmias): good results
